Test [1] deals with T1, GPR17 (Homo sapiens, UniProt Q13304). Briefly: Calcium mobilization functional assay (Ca2+ assay) in CHO hGPR17 cells. Set-up: host or cells: Flp-In T-REx CHO cells, expression induced with doxycycline. Type of test: cell-based. The settings on record: inhibition of 50 nM MDL29,951 (GPR17 agonist), activity range, read-out: Ca^2+ assay pIC50 (converted). As for the experimental part: (§1) Flp-In T-REx CHO cells stably expressing human GPR17 receptor (CHO hGPR17) from Evi Kostenis' lab (Bonn University, Germany) were cultured at 37° C. in a humidified atmosphere of 5% CO2. Cells were grown in DMEM with Nutrient Mixture F-12 supplemented with hygromycin B (500 μg/ml) and blasticidin (30 μg/ml). Expression from the Flp-In locus was induced by treatment with doxycycline (1 μg/ml) for 16-20 h prior assays.
T1 sequence (Q13304 29-367 limits assumed): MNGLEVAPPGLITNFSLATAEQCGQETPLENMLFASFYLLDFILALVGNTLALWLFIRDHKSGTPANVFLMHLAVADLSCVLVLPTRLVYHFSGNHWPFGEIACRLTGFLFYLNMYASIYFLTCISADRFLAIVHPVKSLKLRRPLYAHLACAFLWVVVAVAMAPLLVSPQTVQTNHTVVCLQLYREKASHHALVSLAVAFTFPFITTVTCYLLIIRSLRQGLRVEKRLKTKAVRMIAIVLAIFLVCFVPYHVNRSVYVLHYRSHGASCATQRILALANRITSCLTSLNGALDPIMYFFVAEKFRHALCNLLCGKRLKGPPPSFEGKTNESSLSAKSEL
GPR17 is a G-protein coupled receptor. GPR17 activation triggers Gq-type G-protein signaling resulting in endoplasmic reticulum calcium (Ca^2+) stores release in cytosol which can be measured using Calcium 5 dye, a fluorescent indicator dye of cytosolic Ca^2+ levels. The compounds of the present invention were assessed either in the Ca^2+ assay or in the GPR17 cAMP assay, described further below.
CHO hGPR17 were defrosted and seeded at a density of 20,000 cells per well into black 384-well plates with clear bottom. Cells were incubated overnight at 37° C. in a humidified atmosphere of 5% CO2. Sixteen to twenty hours after seeding, CHO hGPR17 were loaded for 60 min with Calcium 5 dye, a cytosolic Ca^2+ indicator fluorescent dye, according to manufacturer's instructions. Fluorescent signal relative to cytosolic Ca^2+ concentration was recorded over time at room temperature in FLIPR Tetra reader. Cells were first incubated for 30 minutes at room temperature in HBSS Hepes buffer pH 7.4 containing increasing concentrations of test compounds (typically 10^−11 M to 10^−6M). Then, 50 nM MDL29,951, a GPR17 agonist, was added to the cells. Inhibitory effects of varying concentrations test compounds were measured and resulting pIC50S were determined. All incubations were performed in duplicate and results were compared to a concentration response curve of GPR17 agonist and antagonist reference compounds. Analysis and curve fitting were performed in ActivityBase XE using XLfit 4-parameter logistic equation y=A+((B−A)/(1+((C/x)^D))) where A, B, C and D stand for minimum y, maximum y, IC50 and slope, respectively.
The activities of the Example compounds tested are depicted in the table 6 in Section B-IIB below. The activity ranges A, B and C refer to pIC50 values in the Ca^2+ assay as follows: “A”: pIC50 6.5≤x<7.5, “B”: pIC50 7.5≤x<8.5, “C”: 8.5≤pIC50
A general note: Calcium flux is commonly read through the fluorescence of an indicator in the cells.

The target in test [2] is T1, GPR17. Description: cAMP accumulation functional assay (HTRF) in CHO hGPR17 cells. Type of test: cell-based. Set-up: host or cells: Flp-In T-REx CHO cells, expression induced with doxycycline. Conditions: Schild analysis against MDL29,951, 5 μM forskolin, activity range, read-out: cAMP assay pA2 (converted). As for the experimental part: as §1
GPR17 activation can also recruit Gi-type G-protein signaling, resulting in a decrease of intracellular cyclic adenosine monophosphate (cAMP). Intracellular cAMP changes can be measured using the HTRF cAMP dynamic assay kit from CisBio (Codolet, France). Using homogenous time-resolved fluorescence technology (HTRF), the assay is based on competition between native cAMP produced by cells and cAMP labelled with the dye d2. The tracer binding was determined by an anti-cAMP antibody labeled with cryptate.
CHO hGPR17 were detached with PBS containing EDTA and dispatched in black 384-well plates with 5,000 cells per well. Cells were first incubated for 30 minutes at room temperature in HBSS Hepes (pH 7.4) containing vehicle or varying concentrations of test GPR17 antagonist/inverse agonist compounds. Then, a dose response curve of MDL29,951 GPR17 agonist (typically from 10^−5M to 10^−10M) was added on vehicle and on each test GPR17 antagonist/inverse agonist compound concentration in a final volume of 20 μL HBSS Hepes buffer (pH 7.4) containing 1% DMSO, 5 μM forskolin and 0.1 mM IBMX. After 60 minutes incubation at room temperature, the reaction is terminated and the cells lysed by adding the d2 detection reagent and the cryptate reagent in 10 μL lysis buffer each according to manufacturer's instructions. After 60 minutes incubation, changes in cAMP concentrations are measured according to manufacturer's instructions using an Envision plate reader with laser excitation. All incubations were performed in duplicate. Data was analyzed using GraphPad Prism software using the 4-parameter logistic equation to measure MDL29,951 pEC50s in absence and presence of GPR17 antagonist/inverse agonist test compounds. Dose ratio (DR) were plotted against antagonist concentrations and Schild analysis provided estimated affinity pA2 of GPR17 antagonist/inverse agonist test compounds.
The activities of the Example compounds tested are depicted in the table below. The activity ranges A, B and C refer to pA2 values in the cAMP assay as follows: “A”: pA2 6.5≤x<7.5, “B”: pA2 7.5≤x<8.5, “C”: 8.5≤pA2.

Consider `O=S(=O)(Nc1cc(F)cnc1F)c1c[nH]c2cc(Cl)ccc12` [Example I-1, 6-chloro-N-(2,5-difluoropyridin-3-yl)-1H-indole-3-sulfonamide], for which, at GPR17 [1], the IC50 is 31.6 to 316 nM. For `COc1cc(NS(=O)(=O)c2c[nH]c3cc(Cl)ccc23)c(F)nc1Cl` [Example I-4, 6-chloro-N-(6-chloro-2-fluoro-5-methoxypyridin-3-yl)-1H-indole-3-sulfonamide], at GPR17 [1], the IC50 was 31.6 to 316 nM.

Regarding `COc1ccc(NS(=O)(=O)c2c[nH]c3cc(Cl)ccc23)c(Cl)n1` [Example I-8, 6-chloro-N-(2-chloro-6-methoxypyridin-3-yl)-1H-indole-3-sulfonamide], the IC50 on GPR17 [1] was 31.6 to 316 nM. On the same count and under the same terms, next, `COc1ncc(Cl)cc1NS(=O)(=O)c1c[nH]c2cc(Cl)ccc12` [Example I-17, 6-chloro-N-(5-chloro-2-methoxypyridin-3-yl)-1H-indole-3-sulfonamide]: 31.6 to 316 nM.

As to `N#Cc1ccc(NS(=O)(=O)c2c[nH]c3cc(Cl)ccc23)cn1` [Example I-19, 6-chloro-N-(6-cyanopyridin-3-yl)-1H-indole-3-sulfonamide], the IC50 at GPR17 [1] was 31.6 to 316 nM. Same read-out and setting: next, `O=S(=O)(Nc1ccc(Br)nc1)c1c[nH]c2cc(Cl)ccc12` [Example I-20, N-(6-bromopyridin-3-yl)-6-chloro-1H-indole-3-sulfonamide]: 31.6 to 316 nM; `O=S(=O)(Nc1cnc(Cl)c(F)c1)c1c[nH]c2cc(Cl)ccc12` [Example I-23, 6-chloro-N-(6-chloro-5-fluoropyridin-3-yl)-1H-indole-3-sulfonamide]: 31.6 to 316 nM; `O=S(=O)(Nc1ccc(Cl)nc1)c1c[nH]c2cc(Cl)ccc12` [Example I-24, 6-chloro-N-(6-chloropyridin-3-yl)-1H-indole-3-sulfonamide]: 31.6 to 316 nM. For `COc1nc(OCC(F)F)c(F)cc1NS(=O)(=O)c1c[nH]c2nc(C(F)F)ccc12` [Example I-54, N-[6-(2,2-difluoroethoxy)-5-fluoro-2-methoxypyridin-3-yl]-6-(difluoromethyl)-1H-pyrrolo[2,3-b]pyridine-3-sulfonamide], the Kb on GPR17 [2] is at most 3.16 nM. `COc1nc(OCCF)c(F)cc1NS(=O)(=O)c1c[nH]c2nc(C(F)F)ccc12` [Example I-55, 6-(difluoromethyl)-N-[5-fluoro-6-(2-fluoroethoxy)-2-methoxypyridin-3-yl]-1H-pyrrolo[2,3-b]pyridine-3-sulfonamide]: the Kb on GPR17 [2] is 3.16 to 31.6 nM. Consider `COc1nc(OC)c(NS(=O)(=O)c2c[nH]c3nc(C(F)F)ccc23)cc1F` [Example I-56, 6-(difluoromethyl)-N-(5-fluoro-2,6-dimethoxypyridin-3-yl)-1H-pyrrolo[2,3-b]pyridine-3-sulfonamide], for which, on GPR17 [2], the Kb was 3.16 to 31.6 nM. With `Cc1nc(F)c(NS(=O)(=O)c2c[nH]c3nc(C(F)F)ccc23)cc1F` [Example I-57, 6-(difluoromethyl)-N-(2,5-difluoro-6-methylpyridin-3-yl)-1H-pyrrolo[2,3-b]pyridine-3-sulfonamide], the Kb at GPR17 [2] is 3.16 to 31.6 nM. As for `COc1nc(OCCOC(F)F)c(F)cc1NS(=O)(=O)c1c[nH]c2nc(C(F)F)ccc12` [Example I-58, N-[6-[2-(difluoromethoxy)ethoxy]-5-fluoro-2-methoxypyridin-3-yl]-6-(difluoromethyl)-1H-pyrrolo[2,3-b]pyridine-3-sulfonamide], the Kb on GPR17 [2] was at most 3.16 nM.

On to `COc1nc(OC(F)F)c(F)cc1NS(=O)(=O)c1c[nH]c2cc(C)ccc12` [Example I-60, N-[6-(difluoromethoxy)-5-fluoro-2-methoxypyridin-3-yl]-6-methyl-1H-indole-3-sulfonamide], for which, on GPR17 [2], the Kb was at most 3.16 nM. Regarding `COc1ccc(NS(=O)(=O)c2c[nH]c3cc(Cl)ccc23)c(OC)n1` [Example I-61, 6-chloro-N-(2,6-dimethoxypyridin-3-yl)-1H-indole-3-sulfonamide], the Kb at GPR17 [2] is 31.6 to 316 nM. With `COc1nc(OCC(F)F)c(F)cc1NS(=O)(=O)c1c[nH]c2cc(C(F)F)ccc12` [Example I-62, N-[6-(2,2-difluoroethoxy)-5-fluoro-2-methoxypyridin-3-yl]-6-(difluoromethyl)-1H-indole-3-sulfonamide], the Kb at GPR17 [2] was at most 3.16 nM.

In the case of `COc1ccc2c(S(=O)(=O)Nc3cc(F)c(OC(F)F)nc3OC)c[nH]c2c1` [Example I-63, N-[6-(difluoromethoxy)-5-fluoro-2-methoxypyridin-3-yl]-6-methoxy-1H-indole-3-sulfonamide], at GPR17 [2], the Kb was at most 3.16 nM.

Regarding `COc1ccc2c(S(=O)(=O)Nc3cc(F)c(OCC(F)F)nc3OC)c[nH]c2c1` [Example I-64, N-[6-(2,2-difluoroethoxy)-5-fluoro-2-methoxypyridin-3-yl]-6-methoxy-1H-indole-3-sulfonamide], the Kb at GPR17 [2] was at most 3.16 nM. For `COc1nc(OCC(F)F)c(F)cc1NS(=O)(=O)c1c[nH]c2cc(C#N)ccc12` [Example I-65, 6-cyano-N-[6-(2,2-difluoroethoxy)-5-fluoro-2-methoxypyridin-3-yl]-1H-indole-3-sulfonamide], at GPR17 [2], the Kb is 3.16 to 31.6 nM.

As for `COc1nc(OC(F)F)c(F)cc1NS(=O)(=O)c1c[nH]c2cc(C#N)ccc12` [Example I-66, 6-cyano-N-[6-(difluoromethoxy)-5-fluoro-2-methoxypyridin-3-yl]-1H-indole-3-sulfonamide], the Kb on GPR17 [2] is at most 3.16 nM.

As for `O=S(=O)(Nc1cc(F)c(OCC(F)F)nc1F)c1c[nH]c2cc(Cl)ccc12` [Example I-67, 6-chloro-N-[6-(2,2-difluoroethoxy)-2,5-difluoropyridin-3-yl]-1H-indole-3-sulfonamide], on GPR17 [2], the Kb was at most 3.16 nM.

With `COc1nc(OC(F)F)c(F)cc1NS(=O)(=O)c1c[nH]c2c1ccc1cccnc12` [Example I-68, N-[6-(difluoromethoxy)-5-fluoro-2-methoxypyridin-3-yl]-1H-pyrrolo[3,2-h]quinoline-3-sulfonamide], the Kb at GPR17 [2] was at most 3.16 nM. On to `COc1nc(OCC(F)F)c(F)cc1NS(=O)(=O)c1c[nH]c2c1ccc1cccnc12` [Example I-69, N-[6-(2,2-difluoroethoxy)-5-fluoro-2-methoxypyridin-3-yl]-1H-pyrrolo[3,2-h]quinoline-3-sulfonamide], for which, on GPR17 [2], the Kb was at most 3.16 nM. For `COc1ccc(NS(=O)(=O)c2c[nH]c3c2ccc2ccccc23)c(OC)n1` [Example I-70, N-(2,6-dimethoxypyridin-3-yl)-1H-benzo[g]indole-3-sulfonamide], the IC50 at GPR17 [1] is 31.6 to 316 nM. As to `COc1nc(OCC(F)F)c(F)cc1NS(=O)(=O)c1c[nH]c2nc(Cl)c(Br)cc12` [Example I-71, 5-bromo-6-chloro-N-[6-(2,2-difluoroethoxy)-5-fluoro-2-methoxypyridin-3-yl]-1H-pyrrolo[2,3-b]pyridine-3-sulfonamide], the Kb on GPR17 [2] was at most 3.16 nM. Regarding `COc1nc(Cl)c(F)cc1NS(=O)(=O)c1c[nH]c2nc(OCc3ccccc3)ccc12` [Example I-72, N-(6-chloro-5-fluoro-2-methoxypyridin-3-yl)-6-phenylmethoxy-1H-pyrrolo[2,3-b]pyridine-3-sulfonamide], the Kb on GPR17 [2] was 31.6 to 316 nM.

Source of the values: patent US11939319B2, “Pyridinyl and pyrazinyl-(asa)indolsulfonamides” (UCB Pharma GmbH, priority 2018, dated 2024).
